Values belong to the molecule of their own block, whether it stands above or below them.
Assay: Stability investigation of crystal forms A, B, C, D and the amorphous form of the compound of formula (1) (related substances by HPLC, moisture, XRD, DSC)
Type: physicochemical
Settings: for Stability, testing conclusion: under the above conditions (all placement conditions of the study)
Description: (§1) 2.1 Investigation conditions for the crystal form A of the compound of formula (1): • placed at 105° C. for 5 days, opened, and sampled for testing on day 5; • placed at 60° C. for 10 days, opened/closed, and sampled for testing on day 10; • placed at 25° C. and RH 92.5% for 10 days, opened/closed, and sampled for testing on day 10; • placed at 40° C. and RH 75% for one month, opened/closed, and sampled for testing on the last day of the month; and • under illumination, employing a closed way (polyethylene bag + composite film bag) to meet illumination requirements, and sampled for testing.
Illumination requirements: ICH Q1B Stability Testing: Photostability Testing of New Drug Substances and Products.
Determination of related substances: determined according to 0512 HPLC in General Principle (Volume IV) of Chinese Pharmacopoeia (2015 Version).
Moisture determination: determined according to 2 Coulometric Titration in the First Method (Karl Fischer titration) of 0832 Moisture Determination Method in General Principle (Volume IV) of Chinese Pharmacopoeia (2015 Version).
XRD determination: determined according to the Second Method-Powder X-ray Diffraction Method of 0451 X-ray Diffraction Method in General Principle (Volume IV) of Chinese Pharmacopoeia (2015 Version).
DSC determination: precisely weighing an appropriate amount of sample in a Standard disc, covering the Standard disc, placing the Standard disc in a sample disc position in a DSC furnace, placing a blank disc of the same type in a reference position, and carrying out the following temperature rise program:
1. Equilibrate at 25° C.; and
as §1, with “B” for “A”
as §1, with “C” for “A”
1. Equilibrate at 25° C.; and 2. Ramp 10° C. to 200° C.
as §1, with “D” for “A”
as §1, with “amorphous” for “crystal”, “form” for “form A”, “(1):” for “(1): • placed at 105° C. for 5 days, opened, and sampled for testing on day 5;”

[1] = 25° C., RH 92.5%, closed, 10 days
[2] = 25° C., RH 92.5%, opened, 10 days

Moisture % (0 day): 0.70%
Total related % (0 day): 0.21%
Trait (0 day): Off-white power
Moisture % [1]: 2.8%
Total related % [1]: 0.35%
Trait [1]: Off-white power
Moisture % [2]: 3.1%
Total related % [2]: 0.38%
Trait [2]: Off-white power
Moisture % (40° C., RH 75%, closed, 1 M): 2.1%
Total related % (40° C., RH 75%, closed, 1 M): 2.98%
Trait (40° C., RH 75%, closed, 1 M): Off-white power
Moisture % (40° C., RH 75%, opened, 1 M): 1.9%
Total related % (40° C., RH 75%, opened, 1 M): 2.86%
Trait (40° C., RH 75%, opened, 1 M): Off-white power
Moisture % (60° C., closed, 10 days): 0.73%
Total related % (60° C., closed, 10 days): 3.92%
Trait (60° C., closed, 10 days): Off-white power
Moisture % (60° C., opened, 10 days): 0.56%
Total related % (60° C., opened, 10 days): 4.30%
Trait (60° C., opened, 10 days): Off-white power
Moisture % (Avoid light for 18 days): 1.26%
Total related % (Avoid light for 18 days): 0.42%
Trait (Avoid light for 18 days): Off-white power
Structure (SMILES): C[C@H]1CCN1c1nc(N2C[C@@H]3[C@@H](CC(=O)O)[C@@H]3C2)c2c(n1)C(F)(F)CC2 [Amorphous form, 2-((1R,5S,6R)-3-(7,7-difluoro-2-((S)-2-methylazetidin-1-yl)-6,7-dihydro-5H-cyclopenta[d]pyrimidin-4-yl)-3-azabicyclo[3.1.0]hexan-6-yl)acetic acid]
Stability, testing conclusion: less stable than that of the crystal form A, the crystal form B, the crystal form C and the crystal form D

DSC (0 day): 170.33 °C
Moisture % (0 day): 0.53%
Total related % (0 day): 0.18%
Trait (0 day): Off-white power
DSC [1]: 170.42 °C
Moisture % [1]: 0.54%
Total related % [1]: 0.24%
Trait [1]: Off-white power
XRD [1]: Same as day 0
DSC [2]: 170.23 °C
Moisture % [2]: 0.54%
Total related % [2]: 0.24%
Trait [2]: Off-white power
XRD [2]: Same as day 0
DSC (40° C., RH 75%, closed, 1 M): 170.38 °C
Moisture % (40° C., RH 75%, closed, 1 M): 0.57%
Total related % (40° C., RH 75%, closed, 1 M): 0.22%
Trait (40° C., RH 75%, closed, 1 M): Off-white power
XRD (40° C., RH 75%, closed, 1 M): Same as day 0
DSC (40° C., RH 75%, opened, 1 M): 170.32 °C
Moisture % (40° C., RH 75%, opened, 1 M): 0.46%
Total related % (40° C., RH 75%, opened, 1 M): 0.24%
Trait (40° C., RH 75%, opened, 1 M): Off-white power
XRD (40° C., RH 75%, opened, 1 M): Same as day 0
DSC (60° C., closed, 10 days): 170.34 °C
Moisture % (60° C., closed, 10 days): 0.61%
Total related % (60° C., closed, 10 days): 0.24%
Trait (60° C., closed, 10 days): Off-white power
XRD (60° C., closed, 10 days): Same as day 0
DSC (60° C., opened, 10 days): 170.26 °C
Moisture % (60° C., opened, 10 days): 0.54%
Total related % (60° C., opened, 10 days): 0.25%
Trait (60° C., opened, 10 days): Off-white power
XRD (60° C., opened, 10 days): Same as day 0
DSC (105° C., opened, 5 days): 170.65 °C
Moisture % (105° C., opened, 5 days): 0.54%
Total related % (105° C., opened, 5 days): 0.30%
Trait (105° C., opened, 5 days): Off-white power
XRD (105° C., opened, 5 days): Same as day 0
DSC (Avoid light for 18 days): 170.20 °C
Moisture % (Avoid light for 18 days): 0.47%
Total related % (Avoid light for 18 days): 0.19%
Trait (Avoid light for 18 days): Off-white power
XRD (Avoid light for 18 days): Same as day 0
Stability, testing conclusion: relatively stable
Structure (SMILES): C[C@H]1CCN1c1nc(N2C[C@@H]3[C@@H](CC(=O)O)[C@@H]3C2)c2c(n1)C(F)(F)CC2 [Crystal form A, 2-((1R,5S,6R)-3-(7,7-difluoro-2-((S)-2-methylazetidin-1-yl)-6,7-dihydro-5H-cyclopenta[d]pyrimidin-4-yl)-3-azabicyclo[3.1.0]hexan-6-yl)acetic acid]

DSC (0 day): 169.28 °C
Moisture % (0 day): 0.17%
Total related % (0 day): 0.08%
Trait (0 day): White powder
DSC [1]: 169.47 °C
Moisture % [1]: 0.35%
Total related % [1]: 0.10%
Trait [1]: White powder
XRD [1]: Same as day 0
DSC [2]: 169.31 °C
Moisture % [2]: 0.26%
Total related % [2]: 0.10%
Trait [2]: White powder
XRD [2]: Same as day 0
DSC (40° C., RH 75%, closed, 1 M): 169.57 °C
Moisture % (40° C., RH 75%, closed, 1 M): 0.39%
Total related % (40° C., RH 75%, closed, 1 M): 0.08%
Trait (40° C., RH 75%, closed, 1 M): White powder
XRD (40° C., RH 75%, closed, 1 M): Same as day 0
DSC (40° C., RH 75%, opened, 1 M): 169.43 °C
Moisture % (40° C., RH 75%, opened, 1 M): 0.35%
Total related % (40° C., RH 75%, opened, 1 M): 0.09%
Trait (40° C., RH 75%, opened, 1 M): White powder
XRD (40° C., RH 75%, opened, 1 M): Same as day 0
DSC (60° C., closed, 10 days): 169.35 °C
Moisture % (60° C., closed, 10 days): 0.21%
Total related % (60° C., closed, 10 days): 0.11%
Trait (60° C., closed, 10 days): White powder
XRD (60° C., closed, 10 days): Same as day 0
DSC (60° C., opened, 10 days): 169.27 °C
Moisture % (60° C., opened, 10 days): 0.26%
Total related % (60° C., opened, 10 days): 0.13%
Trait (60° C., opened, 10 days): White powder
XRD (60° C., opened, 10 days): Same as day 0
DSC (105° C., opened, 5 days): 169.53 °C ° C.
Moisture % (105° C., opened, 5 days): 0.28%
Total related % (105° C., opened, 5 days): 0.22%
Trait (105° C., opened, 5 days): White powder
XRD (105° C., opened, 5 days): Same as day 0
DSC (Avoid light for 18 days): 169.15 °C
Moisture % (Avoid light for 18 days): 0.17%
Total related % (Avoid light for 18 days): 0.07%
Trait (Avoid light for 18 days): White powder
XRD (Avoid light for 18 days): Same as day 0
Stability, testing conclusion: relatively stable
Structure (SMILES): C[C@H]1CCN1c1nc(N2C[C@@H]3[C@@H](CC(=O)O)[C@@H]3C2)c2c(n1)C(F)(F)CC2 [Crystal form B, 2-((1R,5S,6R)-3-(7,7-difluoro-2-((S)-2-methylazetidin-1-yl)-6,7-dihydro-5H-cyclopenta[d]pyrimidin-4-yl)-3-azabicyclo[3.1.0]hexan-6-yl)acetic acid]

DSC (0 day): 172.44 °C
Moisture % (0 day): 0.24%
Total related % (0 day): 1.25%
Trait (0 day): Off-white power
DSC [1]: 172.36 °C
Moisture % [1]: 0.09%
Total related % [1]: 1.06%
Trait [1]: Off-white power
XRD [1]: Same as day 0
DSC [2]: 172.35 °C
Moisture % [2]: 0.11%
Total related % [2]: 1.07%
Trait [2]: Off-white power
XRD [2]: Same as day 0
DSC (40° C., RH 75%, closed, 1 M): 172.36 °C
Moisture % (40° C., RH 75%, closed, 1 M): 0.19%
Total related % (40° C., RH 75%, closed, 1 M): 1.30%
Trait (40° C., RH 75%, closed, 1 M): Off-white power
XRD (40° C., RH 75%, closed, 1 M): Same as day 0
DSC (40° C., RH 75%, opened, 1 M): 172.35 °C
Moisture % (40° C., RH 75%, opened, 1 M): 0.13%
Total related % (40° C., RH 75%, opened, 1 M): 1.31%
Trait (40° C., RH 75%, opened, 1 M): Off-white power
XRD (40° C., RH 75%, opened, 1 M): Same as day 0
DSC (60° C., closed, 10 days): 172.21 °C
Moisture % (60° C., closed, 10 days): 0.08%
Total related % (60° C., closed, 10 days): 2.20%
Trait (60° C., closed, 10 days): Off-white power
XRD (60° C., closed, 10 days): Same as day 0
DSC (60° C., opened, 10 days): 172.21 °C
Moisture % (60° C., opened, 10 days): 0.08%
Total related % (60° C., opened, 10 days): 2.09%
Trait (60° C., opened, 10 days): Off-white power
XRD (60° C., opened, 10 days): Same as day 0
Total related substances, change (105° C. for 5 days and 60° C. for 10 days): slightly increased
DSC (105° C., opened, 5 days): 171.85 °C
Moisture % (105° C., opened, 5 days): 0.24%
Total related % (105° C., opened, 5 days): 1.77%
Trait (105° C., opened, 5 days): Off-white power
XRD (105° C., opened, 5 days): Same as day 0
DSC (Avoid light for 18 days): 172.42 °C
Moisture % (Avoid light for 18 days): 0.13%
Total related % (Avoid light for 18 days): 1.25%
Trait (Avoid light for 18 days): Off-white power
XRD (Avoid light for 18 days): Same as day 0
Related substances, content, moisture, and XRD stability (opened/closed, 25° C. and RH 92.5% for 10 days, 40° C. and RH 75% for one month): good
Structure (SMILES): C[C@H]1CCN1c1nc(N2C[C@@H]3[C@@H](CC(=O)O)[C@@H]3C2)c2c(n1)C(F)(F)CC2 [Crystal form C, 2-((1R,5S,6R)-3-(7,7-difluoro-2-((S)-2-methylazetidin-1-yl)-6,7-dihydro-5H-cyclopenta[d]pyrimidin-4-yl)-3-azabicyclo[3.1.0]hexan-6-yl)acetic acid]
